Source: patent US20080103193A1, “Methods for making compositions and compositions for treating pain and cachexia” (priority 2006, published 2008)
“Also recorded” adds a separate entry of the source.

Tests used:
[1] = cited from earlier work; for psychoactivity relative to THC: compared with Δ9-THC
[2] = cited from earlier work
[3] = Room temperature storage of marijuana biomass, Δ9-THC content; type: physicochemical; details: 8-month period, room temperature storage at RTI
Protocol: Under DEA Schedule I license (No. RC0288058), two 250-gram shipments of high potency, bulk marijuana biomass were requested from the National Institute of Drug Abuse (NIDA). Both shipments were provided by the Research Triangle Institute (RTI) International, Research Triangle Park, N.C. under contract with NIDA. The first batch (RTI Batch No. 8976-1001-26/University of Mississippi Batch No. 1182/1186) was received and logged in at Aphios on Dec. 17, 2002. This batch was measured by the University of Mississippi's Thad Cochran National Center for the Natural Products Research to have a Δ9-THC content of 8.98%. Table 1 lists the concentration of other cannabinoids per the provided Certificate of Analysis (Dec. 2, 2002). Table 1 also lists HPLC measurements of heat-treated biomass made by Aphios' chemists; the methods and data are detailed below. The biomass was stored in a locked safe at room temperature when not in use. All usage was recorded on a log sheet that was also stored in the same safe.
The second shipment, also from the same batch of high potency marijuana from the U. of Mississippi, was received and logged in at Aphios on Aug. 14, 2003. The second shipment was measured by RTI on Jul. 29, 2003 to have a Δ9-THC content of 6.12% by GLC analysis. […]

## CCCCCc1cc(O)c2c(c1)OC(C)(C)[C@@H]1CCC(CO)=C[C@@H]21 [11-OH-A-9-THC]
[1]
  psychoactivity relative to THC: three times more psychoactive

## C=C(C)[C@@H]1CCC(C)=C[C@H]1c1c(O)cc(CCCCC)cc1O [CBD, cannabidiol]
[1]; in vivo
  psychoactivity: not psychoactive; also recorded: not psychotomimetic in pure form

## CCCCCc1cc(O)c2c(c1)OC(C)(C)[C@@H]1CCC(C)=C[C@@H]21 [Dronabinol]
[2]; oral Dronabinol
  bioavailability (reaches systemic circulation): 6-20%
  time to peak plasma concentrations after dosing: 2 to 4 h
[2]; oral intake of synthetic Δ9-THC capsules
  bioavailability: 6-20%

## CCCCCc1cc(O)c2c(c1)OC(C)(C)[C@@H]1CCC(C)=C[C@@H]21 [Δ9-THC, Δ9-tetrahydrocannabinol]
[3]
  decrease of Δ9-THC content of the marijuana biomass: about 32%

## CCCCCc1cc(O)c2c(c1)OC(C)(C)[C@@H]1CC=C(C)C[C@@H]21 [Δ-8-THC, Δ8-tetrahydrocannabinol]
[1]
  psychoactivity relative to THC: slightly less active
